Results: patent US12459921B2, “Isoindoline compound, preparation method, pharmaceutical composition and use thereof” (SHANGHAI INSTITUTE OF MATERIA MEDICA, CHINESE ACADEMY OF …, priority 2018, dated 2025)

System: MM.1S cells
Test: Inhibitory effect on the proliferation of MM.1S, MTS cell viability test
Assay type: cell-based
Settings: Homo sapiens, MM1.S, 168 h, multiple myeloma MM.1S cells, 7 days incubation, read-out: Tumor cell inhibitory activity
Method in brief: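 MM.1S cells (20,000/well, RPMI 1640 with 10% FBS) exposed to 5-fold compound dilutions at 0.2% DMSO for 7 days at 37° C, 5% CO2. MTS added for 3-4 h; OD490-OD690 gave inhibition versus DMSO, IC50 fitted, mean of three experiments.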

| IC50 [nM] | Structure (SMILES) |
| --- | --- |
| 100 to 1000 | CC(=O)N[C@@H](CCCc1cccc2c1CN(C1CCC(=O)NC1=O)C2=O)C(=O)NCc1ccc(N2CCCC2)cc1 (stereo partly drawn) [Example 186, (2S)-2-acetylamino-5-(2-(2,6-dioxopiperidine-3-)-1-oxoisoindoline-4-)-N-(4-(pyrrolidine-1-)benzyl)pentanamide] |
| 100 to 1000 | CC(=O)N[C@@H](CCCc1cccc2c1CN(C1CCC(=O)NC1=O)C2=O)C(=O)NC1C2CC3CC(C2)CC1C3 (stereo partly drawn) [Example 200, (2S)-2-acetylamino-N-((1S,3S,5S,7 S)-adamantane-2-)-5-(2-(2,6-dioxopiperidine-3-)-1-oxoisoindoline-4-)pentanamide] |
| < 100 | O=C1CCC(N2Cc3c(CCCCCOc4ccnc5ccsc45)cccc3C2=O)C(=O)N1 (centres unmarked) [Example 9, 3-(1-oxo-4-(5-(thieno[3,2-b]pyridine-7-oxy)pentyl)isoindoline-2-)piperidine-2,6-dione] |
| 100 to 1000 | CC(=O)N[C@@H](CCCc1cccc2c1CN(C1CCC(=O)NC1=O)C2=O)C(=O)NC(C)(C)c1ccccc1 (stereo partly drawn) [Example 188, (2S)-2-acetylamino-5-(2-(2,6-dioxopiperidine-3-)-1-oxoisoindoline-4-)-N-(2-phenylpropyl-2-)pentanamide] |
| 100 to 1000 | N#CC1(c2ccc(Cl)cc2)CCN(C(=O)CCCOc2cccc3c2CN(C2CCC(=O)NC2=O)C3=O)CC1 (centres unmarked) [Example 84, 4-(4-chlorophenyl)-1-(4-((2-(2,6-dioxopiperidine-3-)-1-oxoisoindoline-4-)oxy)butyryl)piperidine-4-carbonitrile] |
| < 100 | N#CC1(c2cccc(Cl)c2)CCN(C(=O)CCCCOc2cccc3c2CN(C2CCC(=O)NC2=O)C3=O)CC1 (centres unmarked) [Example 87, 4-(3-chlorophenyl)-1-(5-((2-(2,6-dioxopiperidine-3-)-1-oxoisoindoline-4-)oxy)valeryl)piperidine-4-carbonitrile] |
| 100 to 1000 | O=C1CCC(N2Cc3c(OCCCCCOc4ccnc5ccccc45)cccc3C2=O)C(=O)N1 (centres unmarked) [Example 12, 3-(1-oxo-4-((5-(quinoline-4-oxy)pentyl)oxy)isoindoline-2-)piperidine-2,6-dione] |
| > 20000 | N[C@@H](CCCc1cccc2c1CN(C1CCC(=O)NC1=O)C2=O)C(=O)NC1C2CC3CC(C2)CC1C3 (stereo partly drawn) [Example 176, (2S)—N-((1S,3S,5S,7 S)-adamantane-2-)-2-amino-5-(2-(2,6-dioxopiperidine-3-)-1-oxoisoindoline-4-)pentanamide] |
| 100 to 1000 | O=C1CCC(N2Cc3c(CCCCCN4CCOc5ccccc54)cccc3C2=O)C(=O)N1 (centres unmarked) [Example 105, 3-(4-(5-(2,3-dihydro-4H-benzo[b][1,4]oxazine-4-)pentyl)-1-oxoisoindoline-2-)piperidine-2,6-dione] |
| 100 to 1000 | O=C1CCC(N2Cc3c(CCCCCN4CCC5(C4)C(=O)Nc4ccccc45)cccc3C2=O)C(=O)N1 (centres unmarked) [Example 139] |
| < 100 | O=C1CCC(N2Cc3c(CCCCCOc4cc(C(F)(F)F)nc5ccccc45)cccc3C2=O)C(=O)N1 (centres unmarked) [Example 13, 3-(1-oxo-4-(5-((2-(trifluoromethyl)quinoline-4-)oxy)pentyl)isoindoline-2-)piperidine-2,6-ditone] |
| < 100 | O=C1CCC(N2Cc3c(OCCNC(=O)N4CCC5(CC4)OCc4ccc(Cl)cc45)cccc3C2=O)C(=O)N1 (centres unmarked) [Example 155, 6-chloro-N-(2-((2-(2,6-dioxopiperidine-3-)-1-oxoisoindoline-4-)oxy)ethyl)-3H-spiro[isobenzofuran-1,4-piperidine]-1-carboxamide] |
| 100 to 1000 | CC(=O)N[C@@H](CCCc1cccc2c1CN(C1CCC(=O)NC1=O)C2=O)C(=O)NCc1cccc(Cl)c1 (stereo partly drawn) [Example 184, (2S)-2-acetylamino-N-(3-chlorobenzyl)-5-(2-(2,6-dioxopiperidine-3-)-1-oxoisoindoline-4-)pentanamide] |
| < 100 | O=C1CCC(N2Cc3c(CCCCCN4CCc5cc(Br)ccc54)cccc3C2=O)C(=O)N1 (centres unmarked) [Example 112] |
| 100 to 1000 | O=C1CCC(N2Cc3c(CCCCN4CCN(c5cc(Cl)ccc5Cl)CC4)cccc3C2=O)C(=O)N1 (centres unmarked) [Example 229, 3-(4-(4-(4-(2,5-dichlorophenyl)piperazine-1-yl)butyl)-1-oxoisoindoline-2-yl) piperidine-2,6-dione] |
| 1000 to 20000 | O=C1CCC(N2Cc3c(CCCCN4CCN(c5noc6ccccc56)CC4)cccc3C2=O)C(=O)N1 (centres unmarked) [Example 228, 3-(4-(4-(4-(benzisoxazole-3-yl)piperazine-1-yl)butyl)-1-oxoisoindoline-2-yl)piperidine-2,6-dione] |
| 100 to 1000 | O=C1CCC(N2Cc3c(OCCNC(=O)Nc4ccc(Cl)c(Cl)c4)cccc3C2=O)C(=O)N1 (centres unmarked) [Example 163] |
| < 100 | O=C1CCC(N2Cc3c(CCCCN4CCN(c5ccccc5C(F)(F)F)CC4)cccc3C2=O)C(=O)N1 (centres unmarked) [Example 219, 3-(1-oxo-4-(4-(4-(2-(trifluoromethyl)phenyl)piperazine-1-yl)butyl)isoindoline-2-yl)piperidine-2,6-dione] |

| Structure (SMILES) | IC50 [nM] |
| --- | --- |
| COc1cccc(C2(C#N)CCN(CCCCCc3cccc4c3CN(C3CCC(=O)NC3=O)C4=O)CC2)c1OC (centres unmarked) [Example 260, 4-(2,3-dimethoxyphenyl)-1-(5-(2-(2,6-dioxopiperidin-3-yl)-1-oxoisoindoline-4-yl)pentyl)piperidine-4-carbonitrile] | 100 to 1000 |
| C[C@]1(N2C(=O)c3cccc(OCCCN4CCC(C#N)(c5ccccc5Cl)CC4)c3C2=O)CCC(=O)NC1=O [Example 50, (S)-4-(2-chlorophenyl)-1-(3-((2-(3-methyl-2,6-dioxopiperidine-3-)-1,3-dioxoisoindoline-4-)oxy)propyl)piperidine-4-carbonitrile] | 1000 to 20000 |
| COc1ccc(OC)c(C2(C#N)CCN(CCCCc3cccc4c3CN(C3CCC(=O)NC3=O)C4=O)CC2)c1 (centres unmarked) [Example 246, 4-(2,5-dimethoxyphenyl)-1-(4-(2-(2,6-dioxopiperidine-3-yl)-1-oxoisoindoline-4-yl)butyl)piperidine-4-carbonitrile] | 100 to 1000 |
| O=C1CCC(N2Cc3c(OCCCCCN4CCC5(CC4)OCc4ccc(Cl)cc45)cccc3C2=O)C(=O)N1 (centres unmarked) [Example 132, 3-(4-((5-(6-chloro-3H-spiro[isobenzofuran-1,4-piperidine]-1-)pentyl)oxy)-1-oxoisoindoline-2-)piperidine-2,6-dione] | < 100 |
| Cc1ccc2c(c1)C1(CCN(CCCCCc3cccc4c3CN(C3CCC(=O)NC3=O)C4=O)CC1)OC2 (centres unmarked) [Example 157, 3-(4-(5-(6-methyl-3H-spiro[isobenzofuran-1,4′-piperidine]-1-)pentyl)-1-oxoisoindoline-2-)piperidine-2,6-dione] | < 100 |
| O=C1CCC(N2C(=O)c3cccc(OCCCCOc4ccnc5ccccc45)c3C2=O)C(=O)N1 (centres unmarked) [Example 47, 2-(2,6-dioxopiperidine-3-)-4-(4-(quinoline-4-oxy)butoxy)isoindoline-1,3-dione] | < 100 |
| N#Cc1ccc(C2(C#N)CCN(CCCOc3cccc4c3CN(C3CCC(=O)NC3=O)C4=O)CC2)cc1 (centres unmarked) [Example 69, 4-(4-cyanophenyl)-1-(3-((2-(2,6-dioxopiperidine-3-)-1-oxoisoindoline-4-)oxy)propyl)piperidine-4-carbonitrile] | 100 to 1000 |
| Cc1ccc2c(c1)C1(CCN(CCCOc3cccc4c3CN(C3CCC(=O)NC3=O)C4=O)CC1)OC2 (centres unmarked) [Example 140, 3-(4-(3-(6-methyl-3H-spiro[isobenzofuran-1,4′-piperidine]-1′-)propoxy)-1-oxoisoindoline-2-)piperidine-2,6-dione] | < 100 |
| COc1cccc(C2(C#N)CCN(CCCCc3cccc4c3CN(C3CCC(=O)NC3=O)C4=O)CC2)c1OC (centres unmarked) [Example 259, 4-(2,3-dimethoxyphenyl)-1-(4-(2-(2,6-dioxopiperidin-3-yl)-1-oxoisoindoline-4-yl)butyl)piperidine-4-carbonitrile] | 100 to 1000 |
| N#CC1(c2ccc(Cl)cc2)CCN(CCCCc2cccc3c2CN(C2CCC(=O)NC2=O)C3=O)CC1 (centres unmarked) [Example 95, 4-(4-chlorophenyl)-1-(4-(2-(2,6-dioxopiperidine-3-)-1-oxoisoindoline-4-)butyl)piperidine-4-carbonitrile] | < 100 |
| O=C1CCC(N2Cc3c(CCCCCN4CCC5(CC4)OCc4cc(F)ccc45)cccc3C2=O)C(=O)N1 (centres unmarked) [Example 273, 3-(4-(5-(5-fluoro-3H-spiro[isobenzofuran-1,4′-piperidine]-1′-)pentyl)-1-oxoisoindoline-2-yl)piperidine-2,6-dione] | 100 to 1000 |
| N#CC1(c2cccc(Cl)c2)CCN(CCCCc2cccc3c2CN(C2CCC(=O)NC2=O)C3=O)CC1 (centres unmarked) [Example 93, 4-(3-chlorophenyl)-1-(4-(2-(2,6-dioxopiperidine-3-)-1-oxoisoindoline-4-)butyl)piperidine-4-carbonitrile] | < 100 |
| N#CC1(c2c(F)cccc2Cl)CCN(CCCOc2cccc3c2CN(C2CCC(=O)NC2=O)C3=O)CC1 (centres unmarked) [Example 68, 4-(2-chloro-6-fluorophenyl)-1-(3-((2-(2,6-dioxopiperidine-3-)-1-oxoisoindoline-4-)oxy)propyl)piperidine-4-carbonitrile] | < 100 |
| O=C1CCC(N2Cc3c(OCCCC(=O)N4CCN(c5ccccc5)CC4)cccc3C2=O)C(=O)N1 (centres unmarked) [Example 28, 3-(1-oxo-4-(4-oxo-4-(4-phenylpiperazine-1-)butoxy)isoindoline-2-)piperidine-2,6-dione] | < 100 |
| N#CC1(c2ccccc2Cl)CCN(CCCCCCc2cccc3c2CN(C2CCC(=O)NC2=O)C3=O)CC1 (centres unmarked) [Example 98, 4-(2-chlorophenyl)-1-(6-(2-(2,6-dioxopiperidine-3-)-1-oxoisoindoline-4-)hexyl)piperidine-4-carbonitrile] | < 100 |
| CCc1cc(COCCCCOc2cccc3c2CN(C2CCC(=O)NC2=O)C3=O)c2ccccc2n1 (centres unmarked) [Example 214, 3-(4-(4-((2-ethylquinoline-4-)methoxy)butoxy)-1-oxoisoindoline-2-)piperidine-2,6-dione] | 100 to 1000 |
| Cc1cc(OCCCCOc2cc(F)cc3c2CN(C2CCC(=O)NC2=O)C3=O)c2ccccc2n1 (centres unmarked) [Example 212, 3-(6-fluoro-4-(4-((2-methylquinoline-4-)oxy)butoxy)-1-oxoisoindoline-2-)piperidine-2,6-dione] | < 100 |
